Here are results for 3 molecules from patent US4835251A, “Method of chain combination” (Genetech, Inc., priority 1986, dated 1989).

This assay has as its system interpubic ligament. Put plainly: murine pubic symphysis assay (MPS). It counts as in vivo, mice. Particulars: for biological activity in the MPS assay (biological dose response comparison): estradiol-primed female mice, subcutaneous injection, ligament measured 18-20 hours later. How it is done: The human relaxin and human relaxin analogs were tested in bioassays. The murine pubic symphysis assay (MPS) uses Charles River albino CFW female mice weighing 18-20 g., J. St. Louis, Can. J. Physiol. Pharmacol. 59, 507-512 (1981). Estradiol priming solution is 5 μg estradiol 17β-cyclopentylpropionate in 0.1 ml peanut oil. Human relaxin dose solutions are at concentrations of 2.5, 5.0, 10.0, 20.0, 40.0, and 80.0 μg/ml in a 1% water solution of benzopurpurine 4B. When mice have been housed for at least six days in quarantine and weigh 18-20 g, each one is given a subcutaneous injection of estradiol priming solution. Exactly seven days later mice are injected subcutaneously with 0.2 ml of the appropriate human relaxin dose solution. Between 18 and 20 hours after the human relaxin injection the mice were sacrificed by cervical dislocation. The interpubic ligament is exposed and measured with a micrometer.
The rat uterine contractility in vitro bioassay measures human relaxin ability to relax smooth muscle in the presence of electrically stimulated contractions, J. St. Louis, (1981) Can. J. Physiol. Pharmacol. 59, 507-512. The murine pubic symphysis ligament in vivo bioassay measures relaxin's remodeling effect on connective tissue, Steinetz, B. G. et al. (1960) Endocrinology 67, 102. […] The MPS does responses indicate equipotence for natural human relaxin and H2(B2-33 A24) B Lys^4 B Ala^25, FIG. 3. […] All of the human analogues and natural sequence human relaxin are essentially indistinguishable in the MPS bioassay.

Ends that are not written are not given here.

In the case of `CC[C@H](C)[C@@H]1NC(=O)[C@H](C)NC(=O)[C@H]([C@@H](C)CC)NC(=O)[C@H](CCC(N)=O)NC(=O)[C@H](C)NC(=O)[C@H](CCCNC(=N)N)NC(=O)[C@H](C(C)C)NC(=O)[C@H](CC(C)C)NC(=O)[C@H](CCC(=O)O)NC(=O)[C@H](CCCNC(=N)N)NC(=O)CNC(=O)[C@@H](NC(=O)[C@H](CC(C)C)NC(=O)[C@H](CCCCN)NC(=O)[C@@H](NC(=O)[C@@H](NC(=O)[C@H](CCC(=O)O)NC(=O)[C@H](CCC(=O)O)NC(=O)[C@H](CCCCN)NC(=O)[C@H](Cc2c[nH]c3ccccc23)NC(=O)[C@H](CO)NC(=O)[C@@H](N)CC(=O)O)C(C)C)[C@@H](C)CC)CSSC[C@@H]2NC(=O)[C@@H](NC(=O)[C@H](CCCCN)NC(=O)[C@H](CC(N)=O)NC(=O)[C@H](C)NC(=O)[C@H](CC(C)C)NC(=O)[C@H](C)NC(=O)[C@H](CO)NC(=O)[C@H](Cc3ccc(O)cc3)NC(=O)[C@H](CC(C)C)NC(=O)[C@@H]3CCC(=O)N3)CSSC[C@H](NC(=O)CNC(=O)[C@H](C(C)C)NC(=O)[C@H](Cc3c[nH]cn3)NC2=O)C(=O)N[C@@H]([C@@H](C)O)C(=O)N[C@@H](CCCCN)C(=O)N[C@@H](CCCNC(=N)N)C(=O)N[C@@H](CO)C(=O)N[C@@H](CC(C)C)C(=O)N[C@@H](C)C(=O)N[C@@H](CCCNC(=N)N)C(=O)N[C@@H](Cc2ccccc2)C(=O)N[C@H](C(=O)O)CSSC[C@@H](C(=O)NCC(=O)N[C@@H](C)C(=O)N[C@@H](CO)C(=O)N[C@H](C(=O)N[C@@H](Cc2c[nH]c3ccccc23)C(=O)N[C@@H](CO)C(=O)N[C@@H](CCCCN)C(=O)N[C@@H](CCCNC(=N)N)C(=O)N[C@@H](CO)C(=O)N[C@@H](CC(C)C)C(=O)O)[C@@H](C)O)NC1=O`, the “biological activity in the MPS assay (biological dose response comparison)” value is listed as “biological activity”.

For “porcine relaxin: Porcine relaxin, used for the standard curve in the RUC assay and compared in MPS (Relaxin B chain QSTNDFIKACGRELVRLWVEICGSVSWGRTAL; Relaxin A chain RMTLSEKCCQVGCIRKDIARLC; not fully specified; ends and bridges not checked; UniProt P01348 25-56; P01348 161-182, looked up) [reference compound]”, the “MPS dose response curve, slope / parallelism relative to the other relaxins” value (mouse, in vivo) is “non-parallel response”.

As to `CC[C@H](C)[C@@H]1NC(=O)[C@H](C)NC(=O)[C@H]([C@@H](C)CC)NC(=O)[C@H](CCC(N)=O)NC(=O)[C@H](C)NC(=O)[C@H](CCCNC(=N)N)NC(=O)[C@H](C(C)C)NC(=O)[C@H](CC(C)C)NC(=O)[C@H](CCC(=O)O)NC(=O)[C@H](CCCNC(=N)N)NC(=O)CNC(=O)[C@@H](NC(=O)[C@H](CC(C)C)NC(=O)[C@H](CCCCN)NC(=O)[C@@H](NC(=O)[C@@H](NC(=O)[C@H](CCC(=O)O)NC(=O)[C@H](CCC(=O)O)NC(=O)[C@H](CCCCN)NC(=O)[C@H](Cc2c[nH]c3ccccc23)NC(=O)[C@@H](N)CO)C(C)C)[C@@H](C)CC)CSSC[C@@H]2NC(=O)[C@@H](NC(=O)[C@H](CCCCN)NC(=O)[C@H](CC(N)=O)NC(=O)[C@H](C)NC(=O)[C@H](CC(C)C)NC(=O)[C@H](C)NC(=O)[C@H](CO)NC(=O)[C@H](Cc3ccc(O)cc3)NC(=O)[C@H](CC(C)C)NC(=O)[C@@H]3CCC(=O)N3)CSSC[C@H](NC(=O)CNC(=O)[C@H](C(C)C)NC(=O)[C@H](Cc3c[nH]cn3)NC2=O)C(=O)N[C@@H]([C@@H](C)O)C(=O)N[C@@H](CCCCN)C(=O)N[C@@H](CCCNC(=N)N)C(=O)N[C@@H](CO)C(=O)N[C@@H](CC(C)C)C(=O)N[C@@H](C)C(=O)N[C@@H](CCCNC(=N)N)C(=O)N[C@@H](Cc2ccccc2)C(=O)N[C@H](C(=O)O)CSSC[C@@H](C(=O)NCC(=O)N[C@@H](C)C(=O)N[C@@H](CO)C(=O)N[C@H](C(=O)N[C@@H](Cc2c[nH]c3ccccc23)C(=O)N[C@@H](CO)C(=O)N[C@@H](CCCCN)C(=O)N[C@@H](CCCNC(=N)N)C(=O)N[C@@H](CO)C(=O)N[C@@H](CC(C)C)C(=O)O)[C@@H](C)O)NC1=O`, the “biological activity in the MPS assay (biological dose response comparison)” value is listed as “biological activity”.
